Experimental findings from patent US11548878B2, “Emopamil binding protein binding agent and use thereof” (FUJIFILM Toyama Chemical Co., Ltd., priority 2017, dated 2023) are described below.

This experiment addresses T1, EBP (Homo sapiens, UniProt Q15125).
T1 construct: A membrane fraction was collected from sigma-1 receptor-deficient human neuroblastoma (SH-SY5Y) cells; endogenous in cells; host or cells: sigma-1 receptor-deficient SH-SY5Y human neuroblastoma cells (membrane fraction)
Put plainly: EBP Binding Test (Test Example 1): tritium-labeled Compound A binding to membrane fractions of sigma-1 receptor-deficient SH-SY5Y cells with EBP deleted or overexpressed. As for the experimental part: The binding ability of Compound A to EBP was examined. The test was carried out in accordance with Receptor Signal Transduction Protocols, pp. 135-164 (ISBN 978-1-61779-125-3).
A membrane fraction was collected from sigma-1 receptor-deficient human neuroblastoma (SH-SY5Y) cells, in which EBP was deleted or was overexpressed. Inactivated fetal bovine serum was added to a liquid medium DMEM (Dulbecco's Modified Eagle's Medium) to a final concentration of 10%, and then, a Penicillin-Streptomycin solution (10000 U/mL Penicillin-10000 μg/mL Streptmycin) was added to the medium to a final concentration of 100 U/mL Penicillin-100 μg/mL Streptmycin. The SH-SY5Y cells were cultured in the thus prepared medium.
The method of preparing a membrane fraction is as follows. The cells cultured to a subconfluent state were recovered using a cell scraper, and were then suspended in a 50 mM Tris-HCl (pH=7.4) buffer, followed by disintegrating the cells with an ultrasonic disintegrator. The disintegrated solution was centrifuged (1000 g, 10 minutes), and the supernatant was then ultracentrifuged (28000 rpm, 30 minutes). Thereafter, the obtained precipitate was re-suspended in a 50 mM Tris-HCl (pH=7.4) buffer to obtain a membrane fraction. Regarding the thus prepared membrane fraction, the protein concentration was measured according to a BCA method, and the membrane fraction was then adjusted to a concentration of approximately 1 mg/mL. […]
The receptor binding test method is as follows. […] Thereafter, a liquid scintillation cocktail was added thereto, and the radiation dose (CPM) in each well was then measured using a scintillation counter.
The specific binding ability of Compound A to EBP was determined by subtracting the radiation dose of the control (Non-specific binding) from the radiation dose derived from the tritium-labeled Compound A at each concentration (Total binding). Since the amount of the protein used was different depending on the cell membrane, CPM per μg of the membrane fraction protein used in the reaction was calculated (CPM/protein amount).

T1 sequence (Q15125 2-230 limits assumed): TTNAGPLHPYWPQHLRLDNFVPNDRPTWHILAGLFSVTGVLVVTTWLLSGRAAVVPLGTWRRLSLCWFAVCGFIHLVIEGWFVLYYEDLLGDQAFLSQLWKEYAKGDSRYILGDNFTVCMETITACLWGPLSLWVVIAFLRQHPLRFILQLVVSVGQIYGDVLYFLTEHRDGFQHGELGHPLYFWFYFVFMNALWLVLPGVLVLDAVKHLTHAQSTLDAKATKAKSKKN

As for `OC1CN(CCCOCCc2ccc3sccc3c2)C1` [Compound A], under “conclusion from FIG. 1 and FIG. 2”, the “affinity for EBP” value was “high affinity”. Besides, under “membrane fraction of SH-SY5Y cells, tritium-labeled Compound A 0.05-100.0 nM, 37° C. for 2 hours, FIG. 1”, the “radiation dose (specific binding, CPM/protein amount) in sigma-1 receptor-deficient and EBP-deficient cells compared with sigma-1 receptor-deficient cells” value is listed as “lower”. The “radiation dose (specific binding, CPM/protein amount) in sigma-1 receptor-deficient and EBP-overexpressing cells compared with sigma-1 receptor-deficient cells” value (membrane fraction of SH-SY5Y cells, tritium-labeled Compound A 0.05-100.0 nM, 37° C. for 2 hours, FIG. 2) is “higher”.
